Assay results as given in PMC11251039, “Harnessing cholesterol uptake of malaria parasites for therapeutic applications” (EMBO Molecular Medicine, 2024).
Values joined by “and” are separate entries in the source; they are usually repeats but may differ in a detail not shown here. Identical values can stand only once.

Tests used:
[1] = system: P. falciparum stage III–IV gametocytes; assay: P. falciparum gametocyte viability assay (MitoTracker, flow cytometry), stage III-IV; format: cell-based, Plasmodium falciparum; conditions: 48 h; for Gametocyte stage III-IV viability, percentage of control: replicate values, source data Fig. 2C
Method: (§1) Gametocyte assays commenced seven days (stage III–IV) or ten days (stage V) post-invasion. […]
(§2) Plasmodium falciparum Gametocyte Viability Assays:
(§3) Asexual P. falciparum parasites were induced to form gametocytes as described (21).
(§4) Synchronized trophozoite-stage parasites at 2% parasitaemia were incubated overnight and […]
(§5) haematocrit maintained at 4%. On the subsequent day (designated as day 0) of gametocytogenesis, the culture containing early ring-stage parasites was first purified by sorbitol synchronisation to remove asynchronous trophozoites, and passed through a magnetic field in a sterile MACS® column in a SuperMACSTM II magnet to remove remaining late-stage parasites or later-stage gametocytes (negative selection). The culture medium was supplemented with 50 mM N-acetyl-D-glucosamine to inhibit asexual parasite proliferation, and changed daily. Sorbitol treatment was performed on Day 1, 5, and 6 to further remove asexual parasites. Gametocytes were magnetically enriched (positive selection) in a sterile column with a SuperMACSTM II magnet and eluted in culture media with 50 mM N-acetyl-D-glucosamine. These gametocytes were incubated overnight at 37 °C under microaerophilic conditions, and purity was assessed by examination under a light microscope (400× […]
(§6) Gametocyte viability was assessed as described by Ridgway et al. (21) with modifications.
(§7) Compounds or solvent controls (DMSO) were serially diluted across 96-well plates in culture media supplemented with 50 mM N-acetyl-D-glucosamine. Culture media without compound was used as a negative control. […]
(§8) control to determine background gametocyte fluorescence. Stage III-IV gametocytes (Day 7) or stage V (day 10) gametocytes were concentrated and added to the plate with 200 µL per well. The plate was incubated for 48 hours at 37 °C under humid microaerophilic conditions.
(§9) Parasites were then stained with 500 nM MitoTrackerTM Deep Red FM and 5 μg/ml Hoechst […]
(§10) cytometer as described above. […]
(§11) excluded. Live (positive) and dead (negative) gametocytes were differentiated by […]
(§12) percentage of each was calculated. […]

[2] = system: human foreskin fibroblasts (HFF); assay: Human foreskin fibroblast growth inhibition assay (SYBR Safe); format: cell-based; conditions: 72 h
Method: HFF cell growth inhibition assays commenced by adding 5000 cells to each well of a 96-well plate. 10 µg/mL cycloheximide was used as a no-growth control. DNA replication (indicating growth) was measured at the specified time using SYBR Safe DNA Gel Stain (Invitrogen 33102) and a fluorescence microplate reader. […]
Human Foreskin Fibroblast Growth Inhibition Assays:
The HFF cell line was maintained under routine culture conditions in DMEM containing 3.7 g/L NaHCO3 supplemented with 10% v/v newborn calf serum (NCS), 50 units/mL penicillin, 50 μg/mL streptomycin, 10 μg/mL gentamicin, 0.25 μg/mL amphotericin B, and 0.2 mM L-glutamine at 37 °C in a humidified 5% CO2 incubator. […]
HFF cells were detached from a flask using 0.25% Trypsin with 0.2 g/L EDTA (Sigma T4049) and washed with culture media. Cells were incubated with a serial dilution of each compound, or media/DMSO alone. Cycloheximide at 10 µg/mL was used as a positive control to determine background fluorescence. Approximately 5 000 cells were seeded in each well. Plates were incubated at 37 °C for 72 hours (until reaching confluency) and the media was removed. Plates were transferred to a -18 °C freezer. Plates were thawed and SYBR Safe DNA Gel Stain (final concentration 1/10,000) diluted in lysis buffer (as above) was added. Fluorescence was read at 490 nm excitation/ 520 nm emission on a FLUOstar Optima fluorescence plate reader. […]

[3] = system: P. falciparum stage V gametocytes; assay: P. falciparum gametocyte viability assay (MitoTracker, flow cytometry), stage V; format: cell-based, Plasmodium falciparum; conditions: 48 h; for Gametocyte stage V viability, percentage of control: replicate values, source data Fig. 2D
Method: as §1, §2, §3, §4, §5, §6, §7, §8, §9, §10, §11, §12

[4] = system: human hepatoma cells (Huh7); assay: Human hepatoma viability assay (CellTiter-Blue); format: cell-based; conditions: for Huh7 viability, dose-response data points (Figure 3F): replicate data points
Method: Huh7 hepatoma viability assays were conducted in the same manner as the P. berghei assays, with metabolic capacity (indicating viability) measured with a fluorescence microplate reader after incubation with CellTiter-Blue® (Promega) for 3 h.
Appendix Fraser/Curtis et al. […]
Human Hepatoma Viability Assays:
The Huh7 hepatoma cell line (ATCC) was maintained under routine culture conditions in Dulbecco's Modified Eagle Medium (DMEM) containing 3.7 g/L NaHCO3 supplemented with 10% foetal bovine serum (FBS), 100 units/mL penicillin, and 100 μg/mL streptomycin at 37 °C in a humidified 5% CO2 incubator.
Viability assays were performed in parallel to the P. berghei growth inhibition. 10,000 Huh7 cells were seeded in 96-well and dark-sided microplates (Greiner Bio One) and cultured at 37°C, 5% CO2 and 80% humidity. The next day, the media was replaced with compounds or solvent controls (DMSO) serially diluted in culture media. Media was partially replaced with new drug dilutions over the following two days. After 48 hours, CellTiter-Blue® (Promega) was added according to the manufacturer’s instructions and incubated for 3 hours. Fluorescence intensity was measured with 530/25 ex and 590/20 em in a Synergy HTX plate reader (Agilent).

[5] = 1.562500000 uM, listed as HJB8a53, 1.5625 µM
[6] = 50.000000000 uM, listed as HJB8a53, 50 µM
[7] = 100.000000000 uM, listed as HJB8a53, 100 µM

In the case of `CC(C)OC(=O)CCC(=O)O[C@H]1CC[C@H]2[C@@H]3CC=C4C[C@@H](O)CC[C@]4(C)[C@H]3CC[C@]12C` [C-17-link], the “Gametocyte stage III-IV viability, percentage of control” value [1, 5] is reported as 101% and 107% and 102.8% and 99.18% (2×) and 99.4% and 102.9% and 101.9% and 93.96% and 97.92% and 98.49%, the “Gametocyte stage III-IV viability, percentage of control” value ([1]; 3.125000000 uM, listed as HJB8a53, 3.125 µM) is reported as 105.6% and 102% and 105.7% and 98.51% and 101.4% and 101.9% (2×) and 99.18% and 90.27% and 91.12% and 94.52% and the “Gametocyte stage III-IV viability, percentage of control” value ([1]; 6.250000000 uM, listed as HJB8a53, 6.25 µM) is reported as 99.6% and 103.8% and 106.8% and 101.2% and 104.3% and 103.3% and 101% and 100.8% and 93.96% and 96.79% and 98.77%. For the same compound, the “Gametocyte stage III-IV viability, percentage of control” value ([1]; 12.500000000 uM, listed as HJB8a53, 12.5 µM) was 107.8% and 104% and 107.2% and 101.4% and 104.1% (2×) and 102.9% and 101% and 94.24% and 97.07% and 99.62%, the “Gametocyte stage III-IV viability, percentage of control” value ([1]; 25.000000000 uM, listed as HJB8a53, 25 µM) was 98.8% and 98.2% and 107.2% and 103.9% and 105.9% and 102.5% and 102.3% and 103.5% and 88.86% and 88.57% and 89.42% and the “Gametocyte stage III-IV viability, percentage of control” value [1, 6] was 91.61% and 97.2% and 99.4% and 103.4% and 99.63% and 101% and 91.35% and 89.5% and 90.53% and 84.89% and 81.49% and 79.23%. For the same compound, the “Gametocyte stage III-IV viability, percentage of control” value [1, 7] was 87.57% and 87.36% and 83.7% and 97.18% and 90.82% and 86.32% and 9.91% and 5.752% and 9.494% and 21.99% and 34.89% and 34.32%, the viability at 1.5625 µM ([1]; Plasmodium falciparum, read-out: Gametocyte stage III-IV viability, percentage of control, 1.562500000 uM, 48 h, replicate values, source data Fig. 2C) was 94.6% and the viability at 3.125 µM ([1]; Plasmodium falciparum, read-out: Gametocyte stage III-IV viability, percentage of control, 3.125000000 uM, 48 h, replicate values, source data Fig. 2C) was 94.6%. It also gave a viability at 6.25 µM ([1]; Plasmodium falciparum, read-out: Gametocyte stage III-IV viability, percentage of control, 6.250000000 uM, 48 h, replicate values, source data Fig. 2C) of 98.6%, a viability at 12.5 µM ([1]; Plasmodium falciparum, read-out: Gametocyte stage III-IV viability, percentage of control, 12.500000000 uM, 48 h, replicate values, source data Fig. 2C) of 99.8% and a viability at 25 µM ([1]; Plasmodium falciparum, read-out: Gametocyte stage III-IV viability, percentage of control, 25.000000000 uM, 48 h, replicate values, source data Fig. 2C) of 92.6%. For the same compound, the IC50 ([1]; Plasmodium falciparum, read-out: IC50, P. falciparum gametocyte stage III-IV inhibition, 48 h) was over 100 µM, the “Inhibition of fibroblast growth” value ([2]; HFF) was “no notable inhibition” and the IC50 ([2]; Homo sapiens, Fibroblast, read-out: IC50, human fibroblast growth inhibition) was over 75 µM. The “Gametocyte stage V viability, percentage of control” value [3, 5] was 100.2% and 98.56% and 92.55% and 112.8% and 114.5% and 98.06% and 102.7% and 106.9% and 101%, the “Gametocyte stage V viability, percentage of control” value [3, 6] was 69.57% and 81.64% and 85.27% and the “Gametocyte stage V viability, percentage of control” value [3, 7] was 29.13% and 28.63% and 16.49% and 6.64% and 5.637% and 3.021% and 27.44% and 23.3% and 20.39%. For the same compound, the viability at 6.25 µM ([3]; Plasmodium falciparum, read-out: Gametocyte stage V viability, percentage of control, 6.250000000 uM, 48 h, replicate values, source data Fig. 2D) was 102%, the viability at 12.5 µM ([3]; Plasmodium falciparum, read-out: Gametocyte stage V viability, percentage of control, 12.500000000 uM, 48 h, replicate values, source data Fig. 2D) was 96.4% and the IC50 ([3]; Plasmodium falciparum, read-out: IC50, P. falciparum gametocyte stage V inhibition) was 69.9 µM. The “Huh7 viability, dose-response data points (Figure 3F)” value (“Huh7 viability” below) ([4]; 0.015241580 uM, listed as HJB8a53, 0.0152416 µM) was 105.5 and 101.4 and 96.09 and 69.59 and 87 and 84.06 and 99.27 and 98.63 and 104.2, the “Huh7 viability” value ([4]; 0.045724740 uM, listed as HJB8a53, 0.0457247 µM) was 109.3 and 93.77 and 96.82 and 77.36 and 91.83 and 83.31 and 95.97 and 106.5 and 102.9 and the “Huh7 viability” value ([4]; 0.137174210 uM, listed as HJB8a53, 0.137174 µM) was 96.08 and 92.35 and 97.06 and 75.41 and 90.39 and 89.79 and 95.73 and 112.9 and 104.7. The “Huh7 viability” value ([4]; 0.411522630 uM, listed as HJB8a53, 0.411523 µM) was 96.93 and 97.72 and 96.92 and 63.65 and 105.3 and 104.5 and 106.5 and 105.9 and 105.2, the “Huh7 viability” value ([4]; 1.234567900 uM, listed as HJB8a53, 1.23457 µM) was 100.4 and 99.21 and 88.68 and 67.97 and 84.85 and 96.13 and 101.8 and 95.29 and 104.3 and the “Huh7 viability” value ([4]; 3.703703700 uM, listed as HJB8a53, 3.7037 µM) was 100.3 and 96.61 and 91.24 and 63.53 and 95.92 and 87.81 and 99.75 and 109.9 and 102.3. The “Huh7 viability” value ([4]; 11.111111100 uM, listed as HJB8a53, 11.1111 µM) was 99.33 and 105.1 and 91.64 and 77.62 and 94.71 and 84.32 and 94.43 and 111.6 and 102.6, the “Huh7 viability” value ([4]; 33.333333300 uM, listed as HJB8a53, 33.3333 µM) was 96.9 and 100.5 and 93.64 and 75.36 and 80.99 and 87.75 and 88.68 and 89.18 and 95.7 and the “Huh7 viability” value [4, 7] was 79.4 and 72.92 and 76.08 and 55.81 and 65.46 and 66.75 and 56.01 and 61.1 and 53.13. The “Cytotoxicity to human hepatoma cells” value ([4]; 48 h, up to 100 µM) was “only modest cytotoxicity at high concentrations (>30 µM)” and the IC50 ([4]; Homo sapiens, Huh-7, 48 h, read-out: IC50, human hepatoma inhibition (viability)) was over 100 µM.
